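All cell lines were grown in 96-well plates and treated with compound for 48 hours. GI50 = concentration required for 50% inhibition of growth. TGI marks complete inhibition of growth.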
How the values were obtained:
Experiment in all cases: growth of human tumour cells (NCI), 48 h
[1] = test system: 786-0 renal
[2] = test system: A498 renal
[3] = test system: A549 NSCLC
[4] = test system: ACHN renal
[5] = test system: BT-549 breast
[6] = test system: CAKI-1 renal
[7] = test system: CCRF-CEM leukemia
[8] = test system: COLO 205 colon
[9] = test system: DU-145 prostate
[10] = test system: EKVX NSCLC
[11] = test system: HCC-2998 colon
[12] = test system: HCT-116 colon
[13] = test system: HCT-15 colon
[14] = test system: HL-60(TB) leukemia
[15] = test system: HOP-62 NSCLC
[16] = test system: HOP-92 NSCLC
[17] = test system: HS 578T breast
[18] = test system: HT29 colon
[19] = test system: IGROV1 ovarian
[20] = test system: K-562 leukemia
[21] = test system: KM12 colon
[22] = test system: LOX IMVI melanoma
[23] = test system: M14 melanoma
[24] = test system: MALME-3M melanoma
[25] = test system: MCF7 breast
[26] = test system: MDA-MB-231 breast
[27] = test system: MDA-MB-435
[28] = test system: MOLT-4 leukemia
[29] = test system: NCI-H226 lung
[30] = test system: NCI-H23 lung
[31] = test system: NCI-H460 lung
[32] = test system: NCI-H522 lung
[33] = test system: NCI/ADR-RES ovarian
[34] = test system: OVCAR-3 ovarian
[35] = test system: OVCAR-4 ovarian
[36] = test system: OVCAR-5 ovarian
[37] = test system: OVCAR-8 ovarian
[38] = test system: PC-3 prostate
[39] = test system: RPMI-8226 leukemia
[40] = test system: RXF 393 renal
[41] = test system: SF-268 CNS
[42] = test system: SF-295 CNS
[43] = test system: SF-539 CNS
[44] = test system: SK-MEL-2 melanoma
[45] = test system: SK-MEL-28 melanoma
[46] = test system: SK-MEL-5 melanoma
[47] = test system: SK-OV-3 ovarian
[48] = test system: SN12C renal
[49] = test system: SNB-19 CNS
[50] = test system: SNB-75 CNS
[51] = test system: SR leukemia
[52] = test system: SW-620 colon
[53] = test system: T-47D breast
[54] = test system: TK-10 renal
[55] = test system: U251 CNS
[56] = test system: UACC-257 melanoma
[57] = test system: UACC-62 melanoma
[58] = test system: UO-31 renal

`CC(C)CCC[C@@H](C)[C@H]1CCC2C3=CCn4c(=O)ccc(=O)n4C3CC[C@@]21C` (stereo not given in full) showed a GI50 [1] of 0.921 µM, a TGI [1] of 2.18 µM and a GI50 [2] of 1.26 µM. The TGI [2] was 2.54 µM, the GI50 [3] was 0.325 µM and the TGI [3] was 1.24 µM. The GI50 [4] was 1.16 µM, the TGI [4] was 2.45 µM and the GI50 [5] was 0.241 µM. The TGI [5] was 1.14 µM, the GI50 [6] was 0.46 µM and the TGI [6] was 1.21 µM. It also gave a GI50 [7] of 0.453 µM, a TGI [7] of over 100 µM and a GI50 [8] of 0.449 µM. The TGI [8] was 1.14 µM, the GI50 [9] was 1.24 µM and the TGI [9] was 2.52 µM. It also gave a GI50 [10] of 1.24 µM, a TGI [10] of 2.94 µM and a GI50 [11] of 0.708 µM. It also gave a TGI [11] of 2.03 µM, a GI50 [12] of 0.22 µM and a TGI [12] of 0.645 µM. The GI50 [13] was 0.432 µM, the TGI [13] was 2.05 µM and the GI50 [14] was 0.113 µM. The TGI [14] was 0.49 µM, the GI50 [15] was 1.34 µM and the TGI [15] was 2.76 µM. For the same compound, the GI50 [16] was 0.24 µM, the TGI [16] was 1.39 µM and the GI50 [17] was 1.84 µM. For the same compound, the TGI [17] was 5.03 µM, the GI50 [18] was 0.575 µM and the TGI [18] was 2.06 µM. For the same compound, the GI50 [19] was 0.698 µM, the TGI [19] was 2.5 µM and the GI50 [20] was 0.309 µM. For the same compound, the TGI [20] was 2.02 µM, the GI50 [21] was 0.639 µM and the TGI [21] was 1.8 µM. It also gave a GI50 [22] of 0.482 µM, a TGI [22] of 1.49 µM and a GI50 [23] of 0.436 µM. It also gave a TGI [23] of 1.44 µM, a GI50 [24] of 1.4 µM and a TGI [24] of 2.92 µM. It also gave a GI50 [25] of 0.341 µM, a TGI [25] of 1.4 µM and a GI50 [26] of 1.18 µM. It also gave a TGI [26] of 2.72 µM, a GI50 [27] of 0.599 µM and a TGI [27] of 2.03 µM. For the same compound, the GI50 [28] was 0.545 µM, the TGI [28] was 4.13 µM and the GI50 [29] was 1.43 µM. The TGI [29] was 3.32 µM, the GI50 [30] was 1.63 µM and the TGI [30] was 4.18 µM. For the same compound, the GI50 [31] was 0.886 µM, the TGI [31] was 2.35 µM and the GI50 [32] was 0.451 µM. The TGI [32] was 1.17 µM, the GI50 [33] was 0.602 µM and the TGI [33] was 2.35 µM. For the same compound, the GI50 [34] was 0.74 µM, the TGI [34] was 2 µM and the GI50 [35] was 0.91 µM. It also gave a TGI [35] of 2.3 µM, a GI50 [36] of 1.16 µM and a TGI [36] of 2.71 µM. For the same compound, the GI50 [37] was 0.485 µM, the TGI [37] was 7.55 µM and the GI50 [38] was 0.367 µM. The TGI [38] was 1.59 µM, the GI50 [39] was 0.243 µM and the TGI [39] was 1.01 µM. It also gave a GI50 [40] of 0.717 µM, a TGI [40] of 2.31 µM and a GI50 [41] of 1.46 µM. For the same compound, the TGI [41] was 2.87 µM, the GI50 [42] was 0.352 µM and the TGI [42] was 1.28 µM. For the same compound, the GI50 [43] was 1.43 µM, the TGI [43] was 2.79 µM and the GI50 [44] was 0.557 µM. For the same compound, the TGI [44] was 1.46 µM, the GI50 [45] was 0.837 µM and the TGI [45] was 2.1 µM. The GI50 [46] was 0.844 µM, the TGI [46] was 2.15 µM and the GI50 [47] was 1.78 µM. It also gave a TGI [47] of 3.17 µM, a GI50 [48] of 0.624 µM and a TGI [48] of 2.03 µM. It also gave a GI50 [49] of 1.59 µM, a TGI [49] of 3.02 µM and a GI50 [50] of 1.01 µM. The TGI [50] was 2.18 µM, the GI50 [51] was 0.137 µM and the TGI [51] was 0.758 µM. It also gave a GI50 [52] of 0.689 µM, a TGI [52] of 1.94 µM and a GI50 [53] of 0.266 µM. For the same compound, the TGI [53] was 1.6 µM, the GI50 [54] was 0.421 µM and the TGI [54] was 1.43 µM. It also gave a GI50 [55] of 0.645 µM, a TGI [55] of 1.84 µM and a GI50 [56] of 0.433 µM. For the same compound, the TGI [56] was 1.55 µM, the GI50 [57] was 0.483 µM and the TGI [57] was 1.93 µM. It also gave a GI50 [58] of 0.354 µM and a TGI [58] of 1.48 µM.
In the case of `O=C1/C(=C/c2ccc(O)c(O)c2)COc2ccc(-c3ccccc3)cc21`, the GI50 [1] was 1.94 µM, the TGI [1] was 5.55 µM and the GI50 [2] was 2.2 µM. The TGI [2] was 7.71 µM, the GI50 [3] was 3.16 µM and the TGI [3] was 18.1 µM. The GI50 [4] was 1.53 µM, the TGI [4] was 3.22 µM and the GI50 [5] was 2.37 µM. For the same compound, the TGI [5] was 10.6 µM, the GI50 [6] was 3.66 µM and the TGI [6] was 33.2 µM. For the same compound, the GI50 [7] was 0.329 µM, the GI50 [8] was 0.732 µM and the TGI [8] was 2.15 µM. For the same compound, the GI50 [9] was 1.77 µM, the TGI [9] was 4.48 µM and the GI50 [10] was 5.39 µM. For the same compound, the TGI [10] was 18.1 µM, the GI50 [11] was 1.49 µM and the TGI [11] was 2.98 µM. For the same compound, the GI50 [12] was 1.23 µM, the TGI [12] was 2.65 µM and the GI50 [13] was 0.697 µM. It also gave a TGI [13] of 2.24 µM, a GI50 [14] of 0.435 µM and a TGI [14] of 4.47 µM. It also gave a GI50 [15] of 3.55 µM, a TGI [15] of 11.6 µM and a GI50 [16] of 1.74 µM. The TGI [16] was 8.59 µM, the GI50 [17] was 3.21 µM and the TGI [17] was 13.9 µM. For the same compound, the GI50 [18] was 1.5 µM, the TGI [18] was 3.16 µM and the GI50 [19] was 1.39 µM. It also gave a TGI [19] of 6.41 µM, a GI50 [20] of 1.85 µM and a TGI [20] of 8.31 µM. For the same compound, the GI50 [21] was 1.42 µM, the TGI [21] was 3.39 µM and the GI50 [22] was 1.43 µM. The TGI [22] was 2.84 µM, the GI50 [23] was 2.02 µM and the TGI [23] was 5.28 µM. It also gave a GI50 [24] of 1.7 µM, a TGI [24] of 5.55 µM and a GI50 [25] of 0.666 µM. It also gave a TGI [25] of 5.06 µM, a GI50 [26] of 2.26 µM and a TGI [26] of 8.47 µM. For the same compound, the GI50 [27] was 1.17 µM, the TGI [27] was 3.48 µM and the GI50 [28] was 0.531 µM. It also gave a TGI [28] of 4.73 µM, a GI50 [29] of 4.15 µM and a TGI [29] of 32.8 µM. The GI50 [30] was 2.28 µM, the TGI [30] was 10.9 µM and the GI50 [31] was 1.99 µM. It also gave a TGI [31] of 5.67 µM, a GI50 [32] of 0.334 µM and a TGI [32] of 1.16 µM. It also gave a GI50 [33] of 2.24 µM, a TGI [33] of over 26.8 µM and a GI50 [34] of 0.874 µM. It also gave a TGI [34] of 3.48 µM, a GI50 [35] of 2.2 µM and a TGI [35] of 10.2 µM. It also gave a GI50 [36] of 3.71 µM, a TGI [36] of 16.1 µM and a GI50 [37] of 3.29 µM. The TGI [37] was 22 µM, the GI50 [38] was 1.8 µM and the TGI [38] was 10.7 µM. It also gave a GI50 [39] of 0.187 µM, a TGI [39] of 0.588 µM and a GI50 [40] of 1.71 µM. For the same compound, the TGI [40] was 3.86 µM, the GI50 [41] was 2.11 µM and the TGI [41] was 7.33 µM. For the same compound, the GI50 [42] was 2.84 µM, the TGI [42] was 13 µM and the GI50 [43] was 1.91 µM. It also gave a TGI [43] of 3.89 µM, a GI50 [44] of 3.64 µM and a TGI [44] of 10.7 µM. For the same compound, the GI50 [45] was 1.6 µM, the TGI [45] was 3.07 µM and the GI50 [46] was 1.57 µM. For the same compound, the TGI [46] was 3.77 µM, the GI50 [47] was 4.77 µM and the TGI [47] was 37.7 µM. It also gave a GI50 [48] of 2.47 µM, a TGI [48] of 10.6 µM and a GI50 [49] of 3.51 µM. It also gave a TGI [49] of 14.7 µM, a GI50 [50] of 2.98 µM and a TGI [50] of 11.6 µM. For the same compound, the GI50 [51] was 0.616 µM, the GI50 [52] was 0.875 µM and the TGI [52] was 2.46 µM. It also gave a GI50 [53] of 0.959 µM, a TGI [53] of 3.61 µM and a GI50 [54] of 1.73 µM. The TGI [54] was 6.91 µM, the GI50 [55] was 1.45 µM and the TGI [55] was 3.38 µM. It also gave a GI50 [56] of 3.89 µM, a TGI [56] of 16.9 µM and a GI50 [57] of 2.01 µM. It also gave a TGI [57] of 5.78 µM, a GI50 [58] of 1.22 µM and a TGI [58] of 2.93 µM.

— PubChem BioAssay (NCI)
